Assay [1] deals with T1, insulin receptor (Homo sapiens, UniProt P06213). In words: surface plasmon resonance. The assay is classed as binding. In general terms: Surface plasmon resonance follows binding to a sensor surface in real time, without labels.
Assay [2] deals with T1, insulin receptor. Nature of the assay: surface plasmon resonance. The assay is classed as binding. This is another data set of the same source.

As usually defined, the Kd is a measure of binding affinity in units of concentration.

Where two headings read alike, the source gives them in different places.

T1 sequence (P06213 28-758): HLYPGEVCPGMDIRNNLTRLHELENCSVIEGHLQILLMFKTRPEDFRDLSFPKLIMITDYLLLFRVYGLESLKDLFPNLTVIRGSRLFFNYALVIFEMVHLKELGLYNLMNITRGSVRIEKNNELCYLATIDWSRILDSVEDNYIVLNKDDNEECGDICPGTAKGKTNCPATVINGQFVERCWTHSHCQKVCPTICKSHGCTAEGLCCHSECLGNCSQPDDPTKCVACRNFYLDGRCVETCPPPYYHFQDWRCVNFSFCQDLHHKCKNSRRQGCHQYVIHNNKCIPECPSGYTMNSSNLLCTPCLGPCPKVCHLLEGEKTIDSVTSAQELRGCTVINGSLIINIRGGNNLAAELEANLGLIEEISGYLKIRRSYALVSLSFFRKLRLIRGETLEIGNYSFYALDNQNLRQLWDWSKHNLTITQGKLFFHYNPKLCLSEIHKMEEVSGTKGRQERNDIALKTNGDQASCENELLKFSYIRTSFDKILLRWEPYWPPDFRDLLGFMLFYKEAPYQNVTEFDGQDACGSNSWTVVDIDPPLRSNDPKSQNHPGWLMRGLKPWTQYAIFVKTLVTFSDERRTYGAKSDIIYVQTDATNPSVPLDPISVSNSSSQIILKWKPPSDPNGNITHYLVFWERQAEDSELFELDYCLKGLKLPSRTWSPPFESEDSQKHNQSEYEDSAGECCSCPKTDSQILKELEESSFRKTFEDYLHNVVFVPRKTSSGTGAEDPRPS
T1 sequence (P06213 763-956): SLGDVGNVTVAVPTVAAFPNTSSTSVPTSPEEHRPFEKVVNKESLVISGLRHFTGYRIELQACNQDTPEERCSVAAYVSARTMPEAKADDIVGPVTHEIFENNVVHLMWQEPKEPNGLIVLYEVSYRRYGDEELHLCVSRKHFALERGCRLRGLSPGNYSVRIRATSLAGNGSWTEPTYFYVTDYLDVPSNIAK

Take `CN(C)C(=N)N=C(N)N` [Metformin]: in assay [1], the Kd is around 84 µM. Regarding `O=c1c2ccccc2nc2n1CCc1c-2[nH]c2ccccc12` [Rut-0, Rutaecarpine], the Kd in assay [2] was around 14 µM.
